Reference: US9695154B2, “Heteroaryl inhibitors of sumo activating enzyme” (MILLENNIUM PHARMACEUTICALS, INC., priority 2013, dated 2017)

Biological target: T1, recombinant human SAE enzyme (Homo sapiens, UniProt Q9UBT2)
T1 sequence (Q9UBT2 1-640): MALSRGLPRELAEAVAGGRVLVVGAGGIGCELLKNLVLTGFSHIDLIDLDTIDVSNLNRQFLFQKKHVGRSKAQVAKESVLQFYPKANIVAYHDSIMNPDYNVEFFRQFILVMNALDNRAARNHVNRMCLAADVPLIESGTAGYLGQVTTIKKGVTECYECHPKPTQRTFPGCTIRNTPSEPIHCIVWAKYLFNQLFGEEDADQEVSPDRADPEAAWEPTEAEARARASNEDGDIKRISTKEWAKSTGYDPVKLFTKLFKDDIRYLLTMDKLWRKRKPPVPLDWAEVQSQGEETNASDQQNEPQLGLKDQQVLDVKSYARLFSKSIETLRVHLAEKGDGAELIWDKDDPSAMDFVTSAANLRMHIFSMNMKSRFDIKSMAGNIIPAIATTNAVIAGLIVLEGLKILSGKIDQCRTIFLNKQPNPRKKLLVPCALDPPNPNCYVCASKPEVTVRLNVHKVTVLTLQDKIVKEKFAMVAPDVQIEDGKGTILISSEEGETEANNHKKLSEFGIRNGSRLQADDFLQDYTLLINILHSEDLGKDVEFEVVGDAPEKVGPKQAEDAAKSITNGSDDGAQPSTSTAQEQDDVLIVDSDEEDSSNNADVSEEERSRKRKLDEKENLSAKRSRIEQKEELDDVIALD
T1 sequence (Q9UBE0 1-346 partner): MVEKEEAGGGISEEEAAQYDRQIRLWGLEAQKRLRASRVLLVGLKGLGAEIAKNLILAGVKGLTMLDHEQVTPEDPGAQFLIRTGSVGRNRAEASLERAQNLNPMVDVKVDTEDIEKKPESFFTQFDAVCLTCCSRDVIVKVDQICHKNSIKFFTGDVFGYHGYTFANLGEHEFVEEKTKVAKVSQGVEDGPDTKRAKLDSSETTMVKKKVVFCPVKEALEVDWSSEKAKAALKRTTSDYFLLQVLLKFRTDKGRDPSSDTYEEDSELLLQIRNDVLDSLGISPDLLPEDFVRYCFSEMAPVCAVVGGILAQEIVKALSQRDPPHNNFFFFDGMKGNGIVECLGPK
Test: SAE HTRF Enzyme Assay
Type: biochemical
Conditions: for IC50: class symbols A-C; for inhibition at 0.111 µM: compound concentration 0.111 μM, read-out: Percent Inhibition
Method in brief: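 HTRF signal from Eu-anti-Flag/APC-anti-GST pairs reports Sumo-Flag loaded onto Ubc9-GST by 0.11 nM SAE. Reaction: 0.5 μM ATP, 0.125 μM Sumo-Flag, 0.01 μM Ubc9-GST, 5 mM MgCl2, pH 7.5, 105 min, 24° C. Single-concentration % inhibition or IC50 reported.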

Compound | IC50 | inhibition at 0.111 µM
N#Cc1ccccc1Cn1ccc(C(=O)c2cncnc2N[C@@H]2C[C@H](COS(N)(=O)=O)[C@@H](O)[C@H]2O)n1 [Compound I-249, {(1R,2R,3S,4R)-4-[(5-{[1-(2-cyanobenzyl)-1H-pyrazol-3-yl]carbonyl}pyrimidin-4-yl)amino]-2,3-dihydroxycyclopentyl}methyl sulfamate] | < 0.01 µM | 97%
NS(=O)(=O)OC[C@H]1C[C@@H](Nc2ncncc2C(=O)c2ccn(Cc3cccc(N4CCOCC4)c3)n2)C[C@@H]1O [Compound I-251, [(1R,2S,4R)-2-hydroxy-4-{[5-({1-[3-(morpholin-4-yl)benzyl]-1H-pyrazol-3-yl}carbonyl)pyrimidin-4-yl]amino}cyclopentyl]methyl sulfamate] | 0.01 to 0.1 µM | 71%
NS(=O)(=O)OC[C@H]1C[C@@H](Nc2ncncc2C(=O)c2ccn(CC3=CCCCC3)n2)C[C@@H]1O [Compound I-252, {(1R,2S,4R)-4-[(5-{[1-(cyclohex-1-en-1-ylmethyl)-1H-pyrazol-3-yl]carbonyl}pyrimidin-4-yl)amino]-2-hydroxycyclopentyl}methyl sulfamate] | < 0.01 µM | 97%
N#Cc1ccccc1Cn1ccc(C(=O)c2cncnc2N[C@@H]2C[C@H](COS(N)(=O)=O)[C@@H](O)C2)n1 [Compound I-253, {(1R,2S,4R)-4-[(5-{[1-(2-cyanobenzyl)-1H-pyrazol-3-yl]carbonyl)pyrimidin-4-yl)amino]-2-hydroxycyclopentyl}methyl sulfamate] | 0.01 to 0.1 µM | 91%
NS(=O)(=O)OC[C@H]1C[C@@H](Nc2ncncc2C(=O)c2cc(Cl)n(Cc3ccc(Cl)o3)c2)[C@@H](F)[C@@H]1O [Compound I-254, [(1R,2R,3R,4R)-4-{[5-({5-chloro-1-[(5-chloro-2-furyl)methyl]-1H-pyrrol-3-yl}carbonyl)pyrimidin-4-yl]amino}-3-fluoro-2-hydroxycyclopentyl]methyl sulfamate] | < 0.01 µM | 99%
NS(=O)(=O)OC[C@H]1C[C@@H](Nc2ncncc2C(=O)c2ccn(S(=O)(=O)c3cccc(Br)c3)c2)C[C@@H]1O [Compound I-255, [(1R,2S,4R)-4-{[5-({1-[(3-bromophenyl)sulfonyl]-1H-pyrrol-3-yl}carbonyl)pyrimidin-4-yl]amino}-2-hydroxycyclopentyl]methyl sulfamate] | < 0.01 µM | 97%
NS(=O)(=O)OC[C@H]1C[C@@H](Nc2ncncc2C(=O)c2ccn(Cc3cccc(OC(F)F)c3)n2)[C@H](O)[C@@H]1O [Compound I-256, [(1R,2R,3S,4R)-4-{[5-({1-[3-(difluoromethoxy)benzyl]-1H-pyrazol-3-yl}carbonyl)pyrimidin-4-yl]amino}-2,3-dihydroxycyclopentyl]methyl sulfamate] | < 0.01 µM | 99%
NS(=O)(=O)OC[C@H]1C[C@@H](Nc2ncncc2C(=O)c2ccn(Cc3ccc(C(F)(F)F)s3)c2)[C@@H](F)[C@@H]1O [Compound I-257, [(1R,2R,3R,4R)-3-fluoro-2-hydroxy-4-({5-[(1-{[5-(trifluoromethyl)-2-thienyl]methyl}-1H-pyrrol-3-yl)carbonyl]pyrimidin-4-yl}amino)cyclopentyl]methyl sulfamate] | < 0.01 µM | 98%
NS(=O)(=O)OC[C@H]1C[C@@H](Nc2ncncc2C(=O)c2ccn(Cc3cc(F)cc(C(F)(F)F)c3)n2)[C@H](O)[C@@H]1O [Compound I-258, [(1R,2R,3S,4R)-4-{[5-({1-[3-fluoro-5-(trifluoromethyl)benzyl]-1H-pyrazol-3-yl}carbonyl)pyrimidin-4-yl]amino}-2,3-dihydroxycyclopentyl]methyl sulfamate] | < 0.01 µM | 97%
NS(=O)(=O)OC[C@H]1C[C@@H](Nc2ncncc2C(=O)c2ccn(Cc3ccc(SC(F)(F)F)cc3)n2)[C@H](O)[C@@H]1O [Compound I-259, [(1R,2R,3S,4R)-2,3-dihydroxy-4-({5-[(1-{4-[(trifluoromethyl)sulfanyl]benzyl}-1H-pyrazol-3-yl)carbonyl]pyrimidin-4-yl}amino)cyclopentyl]methyl sulfamate] | < 0.01 µM | 95%
NS(=O)(=O)OC[C@H]1C[C@@H](Nc2ncncc2C(=O)c2ccn(Cc3cc(F)cc(F)c3)n2)C[C@@H]1O [Compound I-260, {(1R,2S,4R)-4-[(5-{[1-(3,5-difluorobenzyl)-1H-pyrazol-3-yl]carbonyl}pyrimidin-4-yl)amino]-2-hydroxycyclopentyl}methyl sulfamate] | < 0.01 µM | 91%
NS(=O)(=O)OC[C@H]1C[C@@H](Nc2ncncc2C(=O)c2ccn(Cc3cc(C(F)(F)F)ccc3C(F)(F)F)n2)C[C@@H]1O [Compound I-261, [(1R,2S,4R)-4-{(5-({1-[2,5-bis(trifluoromethyl)benzyl]-1H-pyrazol-3-yl}carbonyl)pyrimidin-4-yl]amino}-2-hydroxycyclopentyl]methyl sulfamate] | < 0.01 µM | 97%
NS(=O)(=O)OC[C@H]1C[C@@H](Nc2ccncc2C(=O)c2ccn(Cc3cccc(C(F)(F)F)c3)n2)C[C@@H]1O [Compound I-262, [(1R,2S,4R)-2-hydroxy-4-{[3-({1-[3-(trifluoromethyl)benzyl]-1H-pyrazol-3-yl}carbonyl)pyridin-4-yl]amino}cyclopentyl]methyl sulfamate] | < 0.01 µM | 96%
NS(=O)(=O)OC[C@H]1C[C@@H](Nc2ccncc2C(=O)c2ccn(Cc3ccc(F)c(C(F)(F)F)c3)n2)C[C@@H]1O [Compound I-263, [(1R,2S,4R)-4-{[3-({1-[4-fluoro-3-(trifluoromethyl)benzyl]-1H-pyrazol-3-yl}carbonyl)pyridin-4-yl]amino}-2-hydroxycyclopentyl]methyl sulfamate] | < 0.01 µM | 91%
NS(=O)(=O)OC[C@H]1C[C@@H](Nc2ncncc2C(=O)c2ccn(C3(c4cccc(Cl)c4)CC3)c2)C[C@@H]1O [Compound I-264, [(1R,2S,4R)-4-{[5-({1-[1-(3-Chlorophenyl)cyclopropyl]-1H-pyrrol-3-yl}carbonyl)pyrimidin-4-yl]amino}-2-hydroxycyclopentyl]methyl sulfamate] | 0.01 to 0.1 µM | 90%
NS(=O)(=O)OC[C@H]1C[C@@H](Nc2ncncc2C(=O)c2ccn(Cc3ccc(OC(F)(F)F)cc3)n2)[C@H](O)[C@@H]1O [Compound I-265, [(1R,2R,3S,4R)-2,3-dihydroxy-4-{[5-({1-[4-(trifluoromethoxy)benzyl]-1H-pyrazol-3-yl}carbonyl)pyrimidin-4-yl]amino}cyclopentyl]methyl sulfamate] | < 0.01 µM | 95%
NS(=O)(=O)OC[C@H]1C[C@@H](Nc2ncncc2C(=O)c2ccn(Cc3ccc(C(F)(F)F)cc3C(F)(F)F)n2)[C@H](O)[C@@H]1O [Compound I-266, [(1R,2R,3S,4R)-4-{[5-({1-[2,4-bis(trifluoromethyl)benzyl]-1H-pyrazol-3-yl}carbonyl)pyrimidin-4-yl]amino}-2,3-dihydroxycyclopentyl]methyl sulfamate] | 0.01 to 0.1 µM | 87%
NS(=O)(=O)OC[C@H]1C[C@@H](Nc2ncncc2C(=O)c2ccn(Cc3cc(C(F)(F)F)ccc3C(F)(F)F)n2)[C@H](O)[C@@H]1O [Compound I-267, [(1R,2R,3S,4R)-4-{[5-({1-[2,5-bis(trifluoromethyl)benzyl]-1H-pyrazol-3-yl}carbonyl)pyrimidin-4-yl]amino}-2,3-dihydroxycyclopentyl]methyl sulfamate] | < 0.01 µM | 97%
NS(=O)(=O)OC[C@H]1C[C@@H](Nc2ncncc2C(=O)c2ccn(Cc3cc(C(F)(F)F)ccc3Cl)n2)[C@H](O)[C@@H]1O [Compound I-268, [(1R,2R,3S,4R)-4-{[5-({1-[2-chloro-5-(trifluoromethyl)benzyl]-1H-pyrazol-3-yl}carbonyl)pyrimidin-4-yl]amino}-2,3-dihydroxycyclopentyl]methyl sulfamate] | < 0.01 µM | 99%
NS(=O)(=O)OC[C@H]1C[C@@H](Nc2ncncc2C(=O)c2ccn(Cc3cc(F)cc(F)c3)n2)[C@H](O)[C@@H]1O [Compound I-269, {(1R,2R,3S,4R)-4-[(5-{[1-(3,5-difluorobenzyl)-1H-pyrazol-3-yl]carbonyl}pyrimidin-4-yl)amino]-2,3-dihydroxycyclopentyl}methyl sulfamate] | < 0.01 µM | 96%
